Assay [1] deals with DC in organotypic cultures of HPV-transformed keratinocytes. The assay can be described thus: DC infiltration depth in organotypic cultures of HPV-transformed keratinocytes. The format is cell-based, human. As to conditions: 48 hours after chemoattractant addition; GM-CSF 800 U/ml, MCP-1 500 ng/ml, HNP2 750 ng/ml (FIG. 6A). The text has this:
(§1) DC were generated from the adherent fraction of human PBMC (Peripheral Blood Mononuclear Cells) with 800 U/ml GM-CSF (Novartis, Brussels) and 20 U/ml IL-4 (Biosource Europe, Nivelles, Belgium), as previously described (16). DC generated for this study constituted a 90% pure cell population based on several criteria including morphology, forward-scatter and side-scatter values observed by FACS (Fluorescence Activated Cell Sorter) analysis and surface phenotype (CD1a+, CD14−, CD4+, CD54+, . . . ).
Organotypic cultures of HPV-transformed keratinocytes (SiHa cell line (10)) were prepared as previously reported (17). After a 2 week stratification of keratinocytes, labeled DC were seeded on top of the in vitro formed epithelium at a concentration of 2×10^5 cells/50 μl of culture medium. The organotypic culture was then placed on the polycarbophil gel containing or not 800 U/ml of GM-CSF. In order to maintain the culture, the polycarbophil gel (1.5 w/w) was prepared by dispersing the Noveon AA1 in keratinocyte growth medium. […]
The density of DC migrating into the epithelial layer was assessed by the avidin-biotin-peroxidase technique (Vectastain ABC kit, Vector laboratories, Burlingame, Calif.) with an anti-CD1a monoclonal antibody (clone NA1/34 from Dako, Glostrup, Denmark). […] The DC infiltration in organotypic cultures was evaluated by measuring the surface of immunostained cells with a computerized system of image analysis (CAS, Becton Dickinson, Erembodegem, Belgium) following a method previously described (6). The entire surface of each culture section was analyzed and 5 sections of each culture were stained with anti-CD1a. The positive surface was expressed as the percentage of the total surface analyzed. In additional experiments, the LC/DC infiltration depth in the organotypic culturs was evaluated by measuring the distance between the top of the epithelium and individual DC with a computerized system of image analysis (CAS, Becton Dikinson, Erembodegem, Belgium). We then calculated the ratio between the infiltration depth and the thickness of the culture. […]

The test system of assay [2] is DC in organotypic cultures of HPV-transformed keratinocytes (SiHa cell line). The assay can be described thus: DC infiltration into organotypic cultures of HPV-transformed keratinocytes (CD1a labeled surface). The format is cell-based, human. Conditions: 800 U/ml GM-CSF, 48 h.
Source text: as §1
The DC were labeled with a lipophilic fluorescent marker (CM-DiL, Molecular Probes, Leiden, The Netherlands) according to a previously described procedure with minor modifications. Briefly, 4×106 DC were resuspended in 1 ml of PBS and heated to 37° C. […]
The density of DC migrating into the epithelial layer was assessed by the avidin-biotin-peroxidase technique (Vectastain ABC kit, Vector laboratories, Burlingame, Calif.) with an anti-CD1a monoclonal antibody (clone NA1/34 from Dako, Glostrup, Denmark). […] The DC infiltration in organotypic cultures was evaluated by measuring the surface of immunostained cells with a computerized system of image analysis (CAS, Becton Dickinson, Erembodegem, Belgium) following a method previously described (6). The entire surface of each culture section was analyzed and 5 sections of each culture were stained with anti-CD1a. […]

Assay [3] relates to human DC in xenografts of HPV-transformed keratinocytes (CasKi cell line). The assay can be described thus: Xenograft assay in NOD/SCID mice: DC recruitment into transplants of HPV-transformed keratinocytes. The class given is in vivo. On the procedure:
HPV-transformed keratinocytes (2×10^5, CasKi cell line, ATCC, CRL-1550) were plated on collagen gel (2 mg/ml of type I collagen isolated from rat tail tendons) inserted in Teflon rings (Renner, Dannstadt, Germany) and maintained in culture for one day before transplantation onto mice. Twelve-week-old NOD-scid/scid mice were used for this study. They were housed under sterile conditions and water and feed were provided ad libitum. Before transplantation, the cells were washed and the medium was drained. […] Fluorescent DC were counted in the epithelium and, after anti-keratin immunolabeling, the epithelial surface was evaluated with a computerized system of image analysis (CAS, Becton Dickinson, Erembodegem, Belgium). Infiltration results were expressed as numbers of DC per mm^2 of epithelium. […]
Graft cryosections (5 μm in thickness) were fixed in acetone at −20° C. and in 80% methanol at 4° C. […] After washes in PBS, coverslips were mounted and labeling was analysed under an microscope equipped with epifluorescence optics.
A control group of mice was treated with PBS alone. […] The DC infiltration in transplants was assessed by looking for stained DC in histological sections. […] Quantitative analysis of DC infiltration was performed by determining the number of DC per mm2 of epithelial tissue.

Here are results for three substances from patent US20060228417A1, “Mucoadhesive composition comprising polyacrylate and chemoattractant” (priority 2003, published 2006).

Where no end group is shown, it is not given here.

Take “Human Neutrophil Peptide-2 (CYCRIPACIAGERRYGTCIYQGRLWAFCC; ends and bridges not checked; cysteine pairing not given here; UniProt P59665 66-94, looked up) [HNP2, human neutrophil defensin 2, Sigma-Aldrich]”: in assay [1], the “DC infiltration depth in organotypic culture” value (“DC infiltration depth” below) was “reached an infiltration level equivalent to that obtained with GM-CSF”.

Consider Monocyte Chemotactic Protein 1 [MCP1], for which, in assay [1], the “DC infiltration depth” value is “reached an infiltration level equivalent to that obtained with GM-CSF”.

Regarding “granulocyte macrophage—colony stimulating factor [GM-CSF]”, the “DC infiltration, CD1a labeled surface” value in assay [2] (mean ± SD (n=5)) is on record as 28.33±8.11 % of CD1a labeled surface. In addition, the “density of fluorescent-labeled DC within the epithelial sheet” value in assay [2] (versus absence of GM-CSF (FIG. 4)) is recorded as “significant increase in the density of DC”. Besides, in assay [1], the “DC infiltration depth” value was “significant increase in the density of DC observed in the epithelial layer”. For the same substance, the “recruitment of DC in the tumor grafts” value in assay [3] (GM-CSF applied in transplantation chamber versus control mice (FIG. 5)) is on record as “significant (p<0.001) recruitment of DC”. The “DC infiltration in the grafts, number of DC per mm2 of epithelial tissue” value in assay [3] (NOD-SCID mice, 200 μl injected twice into transplantation chamber, 4×10^5 U/ml or U/g, mean ± SD (n=5)) is given as 16.6±14.6 DC/mm2.
